Measurements reported in patent publication US10246455B2, “Histone deacetylase inhibitors” (Taipei Medical University, priority 2014, dated 2019).

Assays:
[1] = test system: MCF-7 (breast carcinoma); test: IC50 in human cancer cell lines (inhibiting HDAC): MCF-7; settings: MCF7, read-out: IC50 ± SD against human cancer cell lines
[2] = test system: PC3 (prostate carcinoma); test: IC50 in human cancer cell lines (inhibiting HDAC): PC3; settings: read-out: IC50 ± SD against human cancer cell lines
[3] = test system: KB-L30 (KB-resistant); test: IC50 against human cancer cell lines: KB-L30; settings: read-out: IC50 ± SD against human cancer cell lines
Method: (§1) More specifically, the IC50 values of test compounds were determined by carrying out a fluorimetric histone deacetylase assay following the manufacturer's instructions. For a pan-HDAC assay, HeLa nuclear extracts were used as a source of histone deacetylase (BioVision Inc.). Histone deacetylase isomer inhibition assays were conducted using purified recombinant histone deacetylase proteins of the various isomers (BPS Bioscience Inc.). Reactions were performed in 0.1 mol/L KCl, 20 mmol/L HEPES/NaOH at pH 7.9, 20% glycerol, 0.2 mmol/L DTA, 0.5 mmol/L DTT, and 0.5 mmol/L phenylmethylsulfonylfluoride. […] Reactions were carried out in triplicate for each test compound. Each point represented the mean±SD of replicates.

[4] = test system: WI-38 (normal: lung); test: IC50 against cell lines: WI-38; settings: Homo sapiens, WI-38, read-out: IC50 ± SD against human cancer cell lines
[5] = test system: MDA-MB-231 (breast carcinoma); test: IC50 against human cancer cell lines: MDA-MB-231; settings: MDA-MB-231, read-out: IC50 ± SD against human cancer cell lines
Method: as §1

[6] = test system: LNCaP-R1 (prostate carcinoma); test: IC50 against human cancer cell lines: LNCaP-R1; settings: read-out: IC50 ± SD against human cancer cell lines
Method: as §1

[7] = test system: KB-7D (KB resistant); test: IC50 against human cancer cell lines: KB-7D; settings: KB7D, read-out: IC50 ± SD against human cancer cell lines
Method: as §1

[8] = test system: androgen-independent PC3 prostate cancer cells; test: Cell cycle analysis; assay type: cell-based, human; settings: androgen-independent PC3 prostate cancer cells
Method: More specifically, cells in the logarithmic phase were initially seeded at a density of 1×10^6 in 100 mm^2 dishes. After treatment with various concentrations of test compounds for the indicated times, cells were trypsinized, washed with PBS, and fixed in 70% ethanol. The fixed cells were then treated with 50 μg/mL RNase and stained with 50 μg/mL propidium iodide at room temperature for 20 minutes. The DNA content was determined by BD FACS Calibur flow cytometry system (BD Biosciences). For each analysis, 10,000 cells were counted, and the percentage of cells in each phase was calculated using ModFit LT software (Verity Software House, Inc.).

[9] = test system: LNCaP-R2 (prostate carcinoma); test: IC50 against human cancer cell lines: LNCaP-R2; settings: read-out: IC50 ± SD against human cancer cell lines
[10] = test system: H460 (non-small-cell lung carcinoma); test: IC50 in human cancer cell lines (inhibiting HDAC): H460; settings: NCI-H460, read-out: IC50 ± SD against human cancer cell lines
[11] = test system: histone and α-tubulin acetylation in PC3 cells; test: Western blot: acetylation in PC3 cells; assay type: cell-based, human; settings: concentration-dependent
Method: More specifically, cells in the logarithmic phase were initially seeded at a density of 1×10^6 in 100 mm^2 dishes. […] Briefly, cells were lysed with the cell lysis reagent CelLytic™ M (Sigma-Aldrich) containing 1 mM DTT, 1 mM PMSF and protease inhibitors for whole-cell lysate preparation. Equal amounts of lysate (on a protein basis) were then differentiated using the SDS-PAGE, blotted on PVDF membranes, conjugated with various specific primary antibodies, and then probed with appropriate secondary antibodies. The immunoreactive bands were detected using the ECL method and visualized on Kodak Bio-MAX MR film.
Proteins from cells were extracted and subjected to the western blotting analysis. β-Actin was used as an internal control. The deacetylase enzyme assay was based on a homogeneous fluorescence release assay. […] After fluorophore from the deacetylated substrates, fluorescent signal was detected.

[12] = test system: HT-29 (colorectal carcinoma); test: IC50 in human cancer cell lines (inhibiting HDAC): HT-29; settings: HT-29, read-out: IC50 ± SD against human cancer cell lines
[13] = test system: KB cell line (oral carcinoma); test: IC50 in human cancer cell lines (inhibiting HDAC): KB; settings: Homo sapiens, read-out: IC50 ± SD against human cancer cell lines, KB, oral carcinoma
[14] = test system: histone and a-tubulin acetylation in human DU145 cells; test: Western blot: acetylation in DU145 cells; assay type: cell-based
Method: More specifically, cells in the logarithmic phase were initially seeded at a density of 1×10^6 in 100 mm^2 dishes. […] IC50 indicia of compound in vitro potency) for the indicated times (i.e., 24 and 48 hours), adherent cells were collected for protein extract preparation. Briefly, cells were lysed with the cell lysis reagent CelLytic™ M (Sigma-Aldrich) containing 1 mM DTT, 1 mM PMSF and protease inhibitors for whole-cell lysate preparation. Equal amounts of lysate (on a protein basis) were then differentiated using the SDS-PAGE, blotted on PVDF membranes, conjugated with various specific primary antibodies, and then probed with appropriate secondary antibodies. The immunoreactive bands were detected using the ECL method and visualized on Kodak Bio-MAX MR film. Proteins from cells were extracted and subjected to the western blotting analysis. β-Actin was used as an internal control. The deacetylase enzyme assay was based on a homogeneous fluorescence release assay. […] After fluorophore from the deacetylated substrates, fluorescent signal was detected.

[15] = test system: Detroit551 (normal: fibroblast); test: IC50 against cell lines: Detroit551; settings: Homo sapiens, Detroit 551, read-out: IC50 ± SD against human cancer cell lines
[16] = test system: DU-145 (prostate carcinoma); test: IC50 against human cancer cell lines: DU-145; settings: DU-145, read-out: IC50 ± SD against human cancer cell lines
Method: as §1

[17] = test system: KB-VIN10 (KB resistant); test: IC50 against human cancer cell lines: KB-VIN10; settings: Homo sapiens, KB-VIN10, read-out: IC50 ± SD against human cancer cell lines

O=C(/C=C/c1cnc2c(ccn2S(=O)(=O)c2ccccc2)c1)NO [Compound 14a, (E)-N-hydroxy-3-(1-(phenylsulfonyl)-1H-pyrrolo[2,3-b]pyridin-5-yl)acrylamide]
IC50 [1]: 0.17 ± 0.055 µM
IC50 [2]: 0.38 ± 0.22 µM
IC50 [3]: 0.445 ± 0.249 µM
IC50 [4]: > 1 µM
IC50 [5]: 0.184 ± 0.05 µM
IC50 [6]: 0.156 ± 0.04 µM
IC50 [7]: 0.276 ± 0.0784 µM
cell cycle arrest and apoptosis [8]: induced cell cycle arrest and apoptosis
IC50 [9]: 0.141 ± 0.05 µM
IC50 [10]: 0.243 ± 0.0704 µM
histone and α-tubulin acetylation [11]: induced histone and α-tubulin acetylation
IC50 [12]: 0.182 ± 0.0267 µM
IC50 [13]: 0.252 ± 0.0585 µM
histone and a-tubulin acetylation [14]: induced histone and a-tubulin acetylation
IC50 [15]: > 1 µM
IC50 [16]: 0.42 ± 0.17 µM
IC50 [17]: 0.213 µM
